{"source": "patent US7795208B2", "about": "“Methods of using deacetylase inhibitors to promote cell differentiation and regeneration” (The Salk Institute for Biological Study, priority 2001, dated 2010)", "key": {"[1]": {"test_system": "4RE-luc, MEF2-luc, MCK-luc", "assay": "Luciferase assay of transiently transfected myogenic reporters in skeletal myoblasts", "type": "cell-based, mouse", "experimental": "Mouse muscle myoblast C2C12 cells (obtained from the American Type Culture Collection, ATCC CRL-1772) and CC42 cells (from Dr. Kenneth Walsh, Tufts University School of Medicine) were cultured in DMEM supplemented with 20% fetal bovine serum, 2 mM glutamine and 1× kanamycin (growth medium, GM). Cellular differentiation was induced with DMEM supplemented with 2% horse serum and 1× insulin, transferring, selenium (Life Technologies). Human skeletal myocytes (CC-2561) were purchased from Clonetics. Stable C2C12 cell lines with integrated reporters are described in Wu, Z., et al., Mol Cell Biol 20:3951-64 (2000). The MCK-luc, 4RE-luc, MEF2 reporter constructs have been described in Puri, P. L., et al., EMBO Journal 16:369-83 (1997a) and Sartorelli, V., et al., Molecular & Cellular Biology 17:1010-26 (1997). The E2F-luc plasmid is described in Helin, K., et al., Genes Dev 7:1850-61 (1993). The MLC-lacZ-nls plasmid is described in Wu, et al. (2000). […] Following transfections, luciferase activity was determined using the Dual-Luciferase reporter assay system (Promega) on a microtiter luminescence detection system (MLX, Dynex).\nC2C12 and CC42 cells were exposed to sodium butyrate 5 mM (Sigma), trichostatin A 50 nM (Upstate Biotechnologies), or valproic acid 10 mM (Sigma) for 24 hours in GM (GM regimen). TSA was removed and the cells cultured in DM for 48 hrs before being analyzed. […]"}, "[2]": {"test_system": "human skeletal myocytes (HSkM)", "assay": "MHC-positive myotube formation in primary human skeletal myocytes", "type": "cell-based", "settings": "HSkM treated 24 hours in GM, then DM without TSA 48 hours", "experimental": "Cellular extracts were obtained and analyzed by Western blotting for the presence of MHC, tubulin, and myogenin. […] Nuclei were stained with DAPI. […] Additionally, RT-PCR was performed on RNA obtained form cells treated with TSA (T) or without (-) TSA with specific primers for either MCK or GAPDH. […] Nuclei were stained with DAPI. […] Cells were grown in GM and treated with TSA for 24 hours, then switched to DM in the absence of TSA for additional 48 hours. Nuclei were stained with DAPI. Additionally, a Western blot analysis of MHC and tubulin expression in either untreated or TSA-treated (T) HSkM is shown. […] Nuclei were stained with DAPI. Mouse muscle myoblast C2C12 cells (obtained from the American Type Culture Collection, ATCC CRL-1772) and CC42 cells (from Dr. Kenneth Walsh, Tufts University School of Medicine) were cultured in DMEM supplemented with 20% fetal bovine serum, 2 mM glutamine and 1× kanamycin (growth medium, GM). Cellular differentiation was induced with DMEM supplemented with 2% horse serum and 1× insulin, transferring, selenium (Life Technologies). Human skeletal myocytes (CC-2561) were purchased from Clonetics. […] Following transfections, luciferase activity was determined using the Dual-Luciferase reporter assay system (Promega) on a microtiter luminescence detection system (MLX, Dynex). […]"}}, "note": "“Also recorded” adds a separate entry of the source.", "data": [{"molecule": "CC(/C=C/C(=O)NO)=C\\[C@@H](C)C(=O)c1ccc(N(C)C)cc1", "note": "[TSA, trichostatin A]", "values": [{"measurement": "HDAC1-mediated inhibition of 4RE-luc", "setting": "[1]; HDAC1 expression vector co-transfected", "result": "could be reversed"}, {"measurement": "transcription of transiently transfected myogenic reporter constructs", "setting": "[1]; treatment in GM or in DM", "result": "stimulates transcription of the reporter constructs only when the DI inhibitors are applied to the cells cultured in GM; also recorded: activation of a transfected MCK-luc reporter"}, {"measurement": "formation of MHC-positive myotubes and MHC expression levels", "setting": "[2]", "result": "greatly enhanced the formation of MHC-positive myotubes and increased the MHC expression levels"}]}]}
